Results taken from BigSolDB 2.1.

CCCCN1CCCCC1C(=O)Nc1c(C)cccc1C.Cl (stereo unspecified)
solubility (mole fraction)
Details | 293.15 K | 298.15 K | 303.15 K | 308.15 K | 313.15 K | 318.15 K | 323.15 K | 328.15 K | 333.15 K
in DMF | 0.0036 | 0.0049 | 0.0062 | 0.0079 | 0.0096 | 0.0117 | 0.0128 | 0.0149 | 0.0172
in acetic acid | 0.0322 | 0.0367 | 0.0399 | 0.0475 | 0.0601 | 0.0702 | 0.0879 | 0.109 | 0.13
in ethanol | 0.0087 | 0.0099 | 0.0115 | 0.0139 | 0.0169 | 0.0207 | 0.0254 | 0.0312 | 0.0372
in isopropanol | 0.002 | 0.0023 | 0.0028 | 0.0032 | 0.0037 | 0.0045 | 0.0051 | 0.006 | 0.0069
in methanol | 0.0116 | 0.014 | 0.0167 | 0.0206 | 0.0249 | 0.0295 | 0.0346 | 0.0407 | –
in n-butanol | 0.0108 | 0.0121 | 0.0142 | 0.0164 | 0.0198 | 0.0236 | 0.0288 | 0.0355 | 0.0412
in n-propanol | 0.0051 | 0.0058 | 0.0084 | 0.0101 | 0.0135 | 0.0172 | 0.0216 | 0.0281 | 0.0342
in water | 0.0017 | 0.0019 | 0.0021 | 0.0022 | 0.0025 | 0.0028 | 0.0032 | 0.0036 | 0.0041
